# pEC50, pKd: −log10 of the molar value. Active and inactive are the calls of the source. The rule behind the calls is not given here.
# How the values were obtained:
# [1] = system: T98G; assay: Antiproliferative activity against human T98G cells assessed as cell growth inhibition incubated for 96 hrs by CellTiter-Glo luminescent cell viability assay; assay type: functional
# [2] = system: T98G; assay: Synergistic antiproliferative activity against human T98G cells assessed as reduction in cell viability at 25 uM pretreated for 2 hrs followed by TMZ addition at 94 uM and measured after 94 hrs by CellTiter-Glo luminescent cell viability assay; assay type: functional, cell-based; details: time 96.0 hrs
# [3] = system: T98G; assay: Additive antiproliferative activity against human T98G cells assessed as reduction in cell viability at 25 uM pretreated for 2 hrs followed by TMZ addition at 188 uM and measured after 94 hrs by CellTiter-Glo luminescent cell viability assay; assay type: functional, cell-based; details: time 96.0 hrs
# [4] = system: T98G; assay: Additive antiproliferative activity against human T98G cells assessed as reduction in cell viability at 25 uM pretreated for 2 hrs followed by TMZ addition at 375 uM and measured after 94 hrs by CellTiter-Glo luminescent cell viability assay; assay type: functional, cell-based; details: time 96.0 hrs
# [5] = system: Calf thymus DNA; assay: Binding affinity to calf thymus DNA assessed as intercalation by measuring dissociation constant at 20 uM measured after 5 mins by UV-Vis spectrophotometric titration analysis; assay type: nucleic-acid assay, Bos taurus
# [6] = system: Calf thymus DNA; assay: Binding affinity to calf thymus DNA assessed as ligand-induced thermal stabilization of DNA duplex by measuring change in melting temperature at 6.25 uM by thermal denaturation analysis; assay type: nucleic-acid assay; details: Bos taurus
# [7] = system: Calf thymus DNA; assay: Displacement of ethidium bromide from calf thymus DNA incubated for 30 mins by fluorescence microplate reader assay; assay type: nucleic-acid assay, Bos taurus
# [8] = system: Calf thymus DNA; assay: Binding affinity to calf thymus DNA assessed as ligand induced positive CD band at 50 uM by Circular dichroism spectroscopy analysis; assay type: nucleic-acid assay; details: Bos taurus
# [9] = system: Panel NCI-60 (60 carcinoma cell lines); assay: Antiproliferative activity against human Panel NCI-60 (60 carcinoma cell lines) assessed as cell growth inhibition incubated for 48 hrs; assay type: functional
# [10] = system: T98G; assay: Synergistic antiproliferative activity against human T98G cells assessed as reduction in cell viability at GI50 pretreated for 2 hrs followed by TMZ addition at 94 uM and measured after 94 hrs by CellTiter-Glo luminescent cell viability assay; assay type: functional, cell-based; details: time 96.0 hrs
# [11] = system: T98G; assay: Additive antiproliferative activity against human T98G cells assessed as reduction in cell viability at GI50 pretreated for 2 hrs followed by TMZ addition at 188 uM and measured after 94 hrs by CellTiter-Glo luminescent cell viability assay; assay type: functional, cell-based
# [12] = Fluorescence property of compound in MeCN assessed as quantum yield; assay type: physicochemical
# [13] = Fluorescence property of compound in THF assessed as quantum yield; assay type: physicochemical
# [14] = Fluorescence property of compound in MeOH assessed as quantum yield; assay type: physicochemical
# [15] = Fluorescence property of compound in aqueous solution assessed as quantum yield; assay type: physicochemical; details: buffer
# [16] = Drug localization in cytosolic region of human T98G cells at 1.1 uM measured after 96 hrs by confocal microscope based live cell imaging analysis; assay type: ADME, subcellular; details: cytosol
# [17] = Drug localization in perinuclear region of nuclear membrane of human T98G cells assessed as appearance of z-stacked series at 1.1 uM measured after 96 hrs by confocal microscope based live cell imaging analysis; assay type: ADME, cell membranes
# [18] = system: T98G; assay: Induction of apoptosis in human T98G cells assessed as increase in early apoptotic cells at 1.1 uM measured after 96 hrs by Annexin V-FITC/PI staining based flow cytometry analysis relative to control; assay type: functional
# [19] = system: T98G; assay: Induction of apoptosis in human T98G cells assessed as increase in early apoptotic cells at 1.1 uM pretreated for 2 hrs followed by TMZ addition and measured after 96 hrs by Annexin V-FITC/PI staining based flow cytometry analysis relative to control; assay type: functional; details: time 98 hrs
# [20] = system: T98G; assay: Synergistic antiproliferative activity against human T98G cells assessed as reduction in cell viability at GI50 pretreated for 2 hrs followed by TMZ addition at 375 uM and measured after 94 hrs by CellTiter-Glo luminescent cell viability assay; assay type: functional, cell-based; details: time 96.0 hrs
# [21] = Thermal stability of compound in aqueous solution at 10 uM at 20 to 75 degreeC by UV-vis absorption spectroscopy; assay type: physicochemical; details: buffer
# [22] = system: T98G; assay: Antiproliferative activity against human T98G cells assessed as cell viability at 94 uM incubated for 96 hrs by CellTiter-Glo luminescent cell viability assay relative to control; assay type: functional; details: read-out: Activity
# [23] = system: T98G; assay: Antiproliferative activity against human T98G cells assessed as cell viability at 188 uM incubated for 96 hrs by CellTiter-Glo luminescent cell viability assay relative to control; assay type: functional; details: read-out: Activity
# [24] = system: T98G; assay: Antiproliferative activity against human T98G cells assessed as cell viability at 375 uM incubated for 96 hrs by CellTiter-Glo luminescent cell viability assay relative to control; assay type: functional; details: read-out: Activity
# [25] = system: T98G; assay: Antiproliferative activity against human T98G cells assessed as cell viability at 25 uM incubated for 96 hrs by CellTiter-Glo luminescent cell viability assay relative to control; assay type: functional; details: read-out: Activity
# [26] = system: T98G; assay: Antagonistic antiproliferative activity against human T98G cells assessed as reduction in cell viability at 25 uM pretreated for 2 hrs followed by TMZ addition at 375 uM and measured after 94 hrs by CellTiter-Glo luminescent cell viability assay; assay type: functional, cell-based; details: time 96.0 hrs
# [27] = system: T98G; assay: Additive antiproliferative activity against human T98G cells assessed as reduction in cell viability at 25 uM pretreated for 2 hrs followed by TMZ addition at 94 uM and measured after 94 hrs by CellTiter-Glo luminescent cell viability assay; assay type: functional, cell-based; details: time 96.0 hrs
# [28] = system: T98G; assay: Antagonistic antiproliferative activity against human T98G cells assessed as reduction in cell viability at GI50 pretreated for 2 hrs followed by TMZ addition at 375 uM and measured after 94 hrs by CellTiter-Glo luminescent cell viability assay; assay type: functional, cell-based; details: time 96.0 hrs
# [29] = system: T98G; assay: Additive antiproliferative activity against human T98G cells assessed as reduction in cell viability at GI50 pretreated for 2 hrs followed by TMZ addition at 375 uM and measured after 94 hrs by CellTiter-Glo luminescent cell viability assay; assay type: functional, cell-based; details: time 96.0 hrs
# [30] = system: T98G; assay: Antagonistic antiproliferative activity against human T98G cells assessed as reduction in cell viability at GI50 pretreated for 2 hrs followed by TMZ addition at 188 uM and measured after 94 hrs by CellTiter-Glo luminescent cell viability assay; assay type: functional, cell-based; details: time 96.0 hrs
# [31] = system: HT-29; assay: Growth inhibition of human HT-29 cells measured after 24 hrs; assay type: functional
# [32] = system: T98G; assay: Induction of DNA damage in human T98G cells assessed as increase in gammaH2AX foci number and size at 92 uM pretreated for 2 hrs followed by TMZ addition and measured after 94 hrs by DAPI staining based immunofluorescence assay; assay type: functional, cell-based; details: time 96.0 hrs
# [33] = system: T98G; assay: Induction of apoptosis in human T98G cells assessed as increase in early apoptotic cells at 92 uM pretreated for 2 hrs followed by TMZ addition and measured after 96 hrs by Annexin V-FITC/PI staining based flow cytometry analysis (reference value: 2 %); assay type: functional; details: time 98 hrs
# [34] = system: T98G; assay: Antagonistic antiproliferative activity against human T98G cells assessed as reduction in cell viability at GI50 pretreated for 2 hrs followed by TMZ addition at 94 uM and measured after 94 hrs by CellTiter-Glo luminescent cell viability assay; assay type: functional, cell-based; details: time 96.0 hrs
Structure (SMILES),GI50 [1] [µM],pKd [5],ΔTm [6] [°C],Activity [11],Activity [12],Activity [13],Activity [14],Activity [15],Stability [21],other results
NCc1cccc(COc2nc(N)nc3nc[nH]c23)c1,> 25,,,,,,,,,Activity [2]: Active; Activity [3]: Active; Activity [4]: Active
COc1ccc2nc3cc(Cl)ccc3c(N)c2c1,0.6,4.79,8.5,Active,0.22,0.22,0.42,0.36,,pEC50 [7]: 5.10; Activity [8]: Active; GI50 [9]: 1 µM; Activity [10]: Active
COc1ccc2nc3cc(Cl)ccc3c(NCCCCn3cnc4c(OCc5ccccc5)nc(N)nc43)c2c1,1.1,4.72,0.6,Active,0.07,0.09,0.06,0.01,Stable,Drug uptake [16]: Active; Drug uptake [17]: Active; Activity [18]: 10%; Activity [19]: 11%; Activity [10]: Active; Activity [20]: Active
Cn1nnc2c(C(N)=O)ncn2c1=O [TEMOZOLOMIDE],375,,,,,,,,,viability at 94 µM [22]: 100%; viability at 188 µM [23]: 63%; viability at 375 µM [24]: 50%
Nc1nc(OCc2ccccc2)c2ncn(CCCCN3C(=O)c4ccccc4C3=O)c2n1,> 25,,,,,,,,,viability at 25 µM [25]: ≥ 70%; Activity [2]: Active; Activity [3]: Active; Activity [26]: Active
COc1ccc2nc3cc(Cl)ccc3c(NCCCCCCCC(=O)NCc3cccc(COc4nc(N)nc5[nH]cnc45)c3)c2c1,19.4,4.84,0.2,Active,0.04,0.06,0.06,0.01,Stable,Activity [27]: Active; Activity [28]: Active
COc1ccc2nc3cc(Cl)ccc3c(NCCCCn3cnc4c(=O)[nH]c(N)nc43)c2c1,> 25,,,Active,,,,,,Activity [29]: Active
COc1ccc2nc3cc(Cl)ccc3c(NCCC(=O)NCc3cccc(COc4nc(N)nc5[nH]cnc45)c3)c2c1,15.6,4.79,1.5,,0.06,0.12,0.07,0.08,Stable,Activity [27]: Active; Activity [30]: Active; Activity [29]: Active
NCCCCn1cnc2c(OCc3ccccc3)nc(N)nc21,> 25,,,,,,,,,viability at 25 µM [25]: ≥ 70%; Activity [2]: Active; Activity [3]: Active; Activity [4]: Active
COc1ccc2nc3cc(Cl)ccc3c(NCCCCn3cnc4c(Oc5ccccc5)nc(N)nc43)c2c1,0.8,,,Active,,,,,,Activity [27]: Active; Activity [29]: Active
Nc1nc(OCc2ccccc2)c2nc[nH]c2n1 [6-O-BENZYLGUANINE],91.8,,,,,,,,,GI50 [31]: > 100 µM; Activity [32]: Active; Activity [33]: 8%; Activity [2]: Active; Activity [3]: Active; Activity [4]: Active
COc1ccc2nc3cc(Cl)ccc3c(NCCOCCOCCn3cnc4c(OCc5ccccc5)nc(N)nc43)c2c1,2.1,4.87,-1.4,Active,0.09,0.09,0.06,< 0.01,Stable,Activity [10]: Active; Activity [20]: Active
COc1ccc2nc3cc(Cl)ccc3c(NCCCCCCCCn3cnc4c(OCc5ccccc5)nc(N)nc43)c2c1,14.5,,0.7,,0.09,0.08,0.05,0.05,Stable,Activity [34]: Active; Activity [30]: Active; Activity [28]: Active
COc1ccc2nc3cc(Cl)ccc3c(NCCOCCOCC(=O)NCc3cccc(COc4nc(N)nc5[nH]cnc45)c3)c2c1,25,4.63,-0.7,,0.05,0.06,0.06,0.01,Stable,Activity [27]: Active; Activity [30]: Active; Activity [28]: Active

# Source: ChEMBL document CHEMBL5143526, “Acridine-O6-benzylguanine hybrids: Synthesis, DNA binding, MGMT inhibition and antiproliferative activity” (Eur J Med Chem, 2022)
